Source: US6849616B1, “Methods to potentiate intravenous estramustine phosphate” (Pharmacia Italia S.p.A., priority 1998, dated 2005)

Assays:
[1] = test system: hormone refractory prostate cancer; conditions: oral, combined with Etoposide, cited from earlier work
prostate cancer = conditions: given orally with escalating doses of docetaxel, cited from earlier work
[2] = cited from earlier work
[3] = test system: advanced metastatic prostate cancer; assay: Clinical cases: weekly high-dose intravenous estramustine phosphate
[4] = test system: hormone refractory prostate cancer; conditions: oral, combined with vinblastine, cited from earlier work
[5] = test system: hormone refractory prostate cancer; conditions: with Taxol, cited from earlier work
[6] = test system: estramustine binding protein (EMBP); conditions: cited from earlier work
tumor cell division = conditions: tissue culture (Hartley-Asp, 1984); cited from earlier work
[7] = Gunnarsson, 1981, 1984; cited from earlier work
tubulin = conditions: in vitro (Dahllof 1993); cited from earlier work
[8] = patients, single intravenous dose of 300 mg; previous data; cited from earlier work
[9] = Pharmacokinetics after a single high intravenous dose of estramustine phosphate in patients; conditions: after a single high intravenous dose of estramustine phosphate at 1000 mg/m^2; FIG. 2
[10] = 245 patients, 300-600 mg/day i.v. for 21 days then once or twice weekly for 2 months (Andersson et al)
[11] = 1000 mg/m^2 i.v. central line, 30 minute infusion, three patients
[12] = 1500 mg/m^2 i.v. central line, 30 minutes or 1 hour infusion, three patients
[13] = 2000 mg/m^2 i.v. central line, 60 minute infusion, with anti-thrombotic agent, three patients
[14] = 2500 mg/m^2 i.v. central line, 90 minute infusion, two patients

## C[C@]12CC[C@@H]3c4ccc(OC(=O)N(CCCl)CCCl)cc4CC[C@H]3[C@@H]1CC[C@@H]2OP(=O)(O)O [estramustine phosphate]
[1]; 20 patients with soft tissue disease (3 patients)
  complete responses (CR): 15%
[1]; 20 patients with soft tissue disease (6 patients)
  partial responses (PR): 30%
[1]; 32 patients with bone metastases (8 patients)
  patients with bone metastases improved: 25%
[1]; 32 patients with bone metastases (12 patients)
  patients with bone metastases stable: 38%
[1]; overall, 13 men
  men with a 75% decrease in prostate specific antigen: 25%
[1]; overall, 28 men
  men with a 50% decrease in prostate specific antigen: 54%
Prostate cancer
  overall prostate specific antigen response rate: 62%
Prostate cancer; patients with bidimensionally measurable disease (3 patients)
  partial response in lymph nodes: 43%
[2]; 450 mg/day i.v. (Nagel and Kölln 1977)
  toxicity at 450 mg/day intravenous: severe gastrointestinal problems
[2]; 900 mg/day i.v. for 7-10 days followed by oral therapy, 11 of 18 patients (Maier 1990)
  patients with severe liver problems: 61%
[2]; [10]
  patients exhibiting gastrointestinal problems: 17%
  patients exhibiting liver disturbances: 9%
  patients exhibiting thrombophlebitis: 20%
[3]; [11]
  PSA response: several patients demonstrating PSA response
  tolerability of infusions: well tolerated
[3]; [12]
  tolerability of infusions: well tolerated
  tumor response: one patient demonstrating a response in bulky tumor adenopathy
[3]; [13]
  PSA response: evidence of PSA response
  tolerability of infusions: well tolerated without serious toxicity
[3]; [14]
  prostate specific antigen (PSA) response: both patients demonstrated a response (reduction)
  tolerability of infusions: well tolerated without serious toxicity
[4]; 4/37
  incidence of significant cardiovascular toxicity: 10.5%
[4]; among 88 patients
  decrease in prostate specific antigen: 50-75%
[4]
  most frequent toxicity: mild to moderate nausea
[5]; 6 patients
  transient hepatic enzyme elevation of grade 1-3: 35.2%
[5]; 8 patients
  edema: 47%
[5]; of six patients with measurable disease, PR of 2+, 6, and 8 months
  patients obtaining a PR: 3
[5]; seventeen patients
  Grade 3-4 granulocytopenia and mucositis: 2 patients
  median duration of response: 7 months
  nausea grade 1-2: 70.5%
  patients with PSA decreased by ≧50%: 58.8%

## C[C@]12CC[C@@H]3c4ccc(OC(=O)N(CCCl)CCCl)cc4CC[C@H]3[C@@H]1CC[C@@H]2O [estramustine]
[6]
  binding affinity to EMBP-like protein: very high affinity
Tumor cell division
  anti-mitotic effect: dose-dependent blocking of tumor cell division in the metaphase
[7]
  yield of estradiol and estrone, respectively, by cleavage of the carbamic ester: approximately 15%
tubulin
  effect on assembly of microtubules composed of only tubulin: inhibited the assembly of microtubules

## C[C@]12CC[C@@H]3c4ccc(OC(=O)N(CCCl)CCCl)cc4CC[C@H]3[C@@H]1CCC2=O [estromustine]
[6]
  binding affinity to EMBP-like protein: very high affinity
[7]
  yield of estradiol and estrone, respectively, by cleavage of the carbamic ester: approximately 15%
[8]
  elimination half lives of estromustine: 10 to 20 h
[9]
  half life of estromustine: approximately 100 hours
